Experimental data as given in ChEMBL document CHEMBL3046568, “Synthesis, antimicrobial and DNA cleavage studies of some 4-aryloxymethylcoumarins obtained by reaction of 4-bromomethylcoumarins with bidentate nucleophiles” (2012).
Converted amounts (≈) assume the structure as drawn. The source made the active and inactive calls. The rule behind the calls is not given here.

Columns and labels:
Escherichia coli [1] = experiment: Induction of Escherichia coli MTCC 1089 DNA cleavage at 25 ug after 2 hr by agarose gel electrophoresis
Staphylococcus aureus [2] = experiment: Antibacterial activity against Staphylococcus aureus MTCC 3160 after 24 hr by disk diffusion method; assay type: functional; conditions: for MIC: Staphylococcus aureus, MTCC 3160, 24 h
Aspergillus fumigatus = experiment: Antifungal activity against Aspergillus fumigatus after 3 to 4 days by serial dilution method; assay type: functional; conditions: for MIC: Aspergillus fumigatus
Mucor fuscus = experiment: Antifungal activity against Mucor fuscus after 3 to 4 days by serial dilution method; assay type: functional; conditions: for MIC: Mucor fuscus
Candida albicans = experiment: Antifungal activity against Candida albicans after 3 to 4 days by serial dilution method; assay type: functional; conditions: for MIC: Candida albicans
Klebsiella pneumoniae = experiment: Antibacterial activity against Klebsiella pneumoniae MTCC 3384 after 24 hr by disk diffusion method; assay type: functional; conditions: for MIC: Klebsiella pneumoniae, MTCC 3384, 24 h
Penicillium chrysogenum = experiment: Antifungal activity against Penicillium chrysogenum after 3 to 4 days by serial dilution method; assay type: functional; conditions: for MIC: Penicillium chrysogenum
Aspergillus niger [3] = experiment: Antifungal activity against Aspergillus niger after 3 to 4 days by serial dilution method; assay type: functional; conditions: for MIC: Aspergillus niger
Escherichia coli [4] = experiment: Antibacterial activity against Escherichia coli MTCC 1089 after 24 hr by disk diffusion method; assay type: functional; conditions: for MIC: Escherichia coli, MTCC 1089, 24 h
Enterococcus faecalis = experiment: Antibacterial activity against Enterococcus faecalis MTCC 3382 after 24 hr by disk diffusion method; assay type: functional; conditions: for MIC: Enterococcus faecalis, MTCC 3382, 24 h
Pseudomonas aeruginosa = experiment: Antibacterial activity against Pseudomonas aeruginosa MTCC 1034 after 24 hr by disk diffusion method; assay type: functional; conditions: for MIC: Pseudomonas aeruginosa, MTCC 1034, 24 h
Bacillus subtilis = experiment: Antibacterial activity against Bacillus subtilis MTCC 297 after 24 hr by disk diffusion method; assay type: functional; conditions: for MIC: Bacillus subtilis, MTCC 297, 24 h
Aspergillus niger [5] = experiment: Induction of Aspergillus niger DNA cleavage at 50 ug after 2 hr by agarose gel electrophoresis
Fusarium oxysporum = experiment: Antifungal activity against Fusarium oxysporum after 3 to 4 days by serial dilution method; assay type: functional; conditions: for MIC: Fusarium oxysporum
Escherichia coli [6] = experiment: Induction of Escherichia coli MTCC 1089 DNA cleavage at 50 ug after 2 hr by agarose gel electrophoresis
Staphylococcus aureus [7] = experiment: Induction of Staphylococcus aureus MTCC 3160 DNA cleavage at 50 ug after 2 hr by agarose gel electrophoresis
Staphylococcus aureus [8] = experiment: Induction of Staphylococcus aureus MTCC 3160 DNA cleavage at 25 ug after 2 hr by agarose gel electrophoresis
Aspergillus niger [9] = experiment: Induction of Aspergillus niger DNA cleavage at 25 ug after 2 hr by agarose gel electrophoresis

Row | Compound | inhibition zone (IZ) (Staphylococcus aureus [2]) | MIC (Staphylococcus aureus [2]) | inhibition zone (IZ) (Aspergillus fumigatus) | MIC (Aspergillus fumigatus) | inhibition zone (IZ) (Mucor fuscus) | MIC (Mucor fuscus) | inhibition zone (IZ) (Candida albicans) | MIC (Candida albicans) | inhibition zone (IZ) (Klebsiella pneumoniae) | MIC (Klebsiella pneumoniae) | inhibition zone (IZ) (Penicillium chrysogenum) | MIC (Penicillium chrysogenum) | inhibition zone (IZ) (Aspergillus niger [3]) | MIC (Aspergillus niger [3]) | inhibition zone (IZ) (Escherichia coli [4]) | MIC (Escherichia coli [4]) | inhibition zone (IZ) (Enterococcus faecalis) | MIC (Enterococcus faecalis) | inhibition zone (IZ) (Pseudomonas aeruginosa) | MIC (Pseudomonas aeruginosa) | also measured
1 | COc1ccc2oc(=O)cc(COc3cccc(O)c3)c2c1 | 20 mm | 6.25 µg/mL (≈ 21 µM) | 17 mm | 12.5 µg/mL (≈ 41.9 µM) | 19 mm | 6.25 µg/mL (≈ 21 µM) | 19 mm | 6.25 µg/mL (≈ 21 µM) | 21 mm | 6.25 µg/mL (≈ 21 µM) | 20 mm | 6.25 µg/mL (≈ 21 µM) | 20 mm | 6.25 µg/mL (≈ 21 µM) | 18 mm | 12.5 µg/mL (≈ 41.9 µM) | 21 mm | 6.25 µg/mL (≈ 21 µM) | 25 mm | 6.25 µg/mL (≈ 21 µM) | Activity (Escherichia coli [1]): Active; inhibition zone (IZ) (Bacillus subtilis): 18 mm; MIC (Bacillus subtilis): 6.25 µg/mL (≈ 21 µM); Activity (Aspergillus niger [5]): Active; inhibition zone (IZ) (Fusarium oxysporum): 16 mm; MIC (Fusarium oxysporum): 12.5 µg/mL (≈ 41.9 µM); Activity (Escherichia coli [6]): Active; Activity (Staphylococcus aureus [7]): Active
2 | CCN(CC)c1cccc(OCc2cc(=O)oc3ccc(OC)cc23)c1 | 20 mm | 6.25 µg/mL (≈ 17.7 µM) | 19 mm | 6.25 µg/mL (≈ 17.7 µM) | 19 mm | 6.25 µg/mL (≈ 17.7 µM) | 17 mm | 6.25 µg/mL (≈ 17.7 µM) | 20 mm | 6.25 µg/mL (≈ 17.7 µM) | 23 mm | 6.25 µg/mL (≈ 17.7 µM) | 20 mm | 6.25 µg/mL (≈ 17.7 µM) | 17 mm | 12.5 µg/mL (≈ 35.4 µM) | 20 mm | 6.25 µg/mL (≈ 17.7 µM) | 25 mm | 6.25 µg/mL (≈ 17.7 µM) | Activity (Escherichia coli [1]): Active; inhibition zone (IZ) (Bacillus subtilis): 18 mm; MIC (Bacillus subtilis): 6.25 µg/mL (≈ 17.7 µM); Activity (Aspergillus niger [5]): Active; inhibition zone (IZ) (Fusarium oxysporum): 15 mm; Activity (Escherichia coli [6]): Active; Activity (Staphylococcus aureus [7]): Active
3 | O=c1cc(COc2cccc(O)c2)c2cc(Cl)ccc2o1 | 21 mm | 6.25 µg/mL (≈ 20.6 µM) | 21 mm | 6.25 µg/mL (≈ 20.6 µM) | 21 mm | 6.25 µg/mL (≈ 20.6 µM) | 20 mm | 6.25 µg/mL (≈ 20.6 µM) | 19 mm | 6.25 µg/mL (≈ 20.6 µM) | 22 mm | 6.25 µg/mL (≈ 20.6 µM) | 24 mm | 6.25 µg/mL (≈ 20.6 µM) | 17 mm | 12.5 µg/mL (≈ 41.3 µM) | 22 mm | 6.25 µg/mL (≈ 20.6 µM) | 24 mm | 6.25 µg/mL (≈ 20.6 µM) | Activity (Staphylococcus aureus [8]): Active; Activity (Aspergillus niger [9]): Active; inhibition zone (IZ) (Bacillus subtilis): 20 mm; MIC (Bacillus subtilis): 6.25 µg/mL (≈ 20.6 µM); Activity (Aspergillus niger [5]): Active; inhibition zone (IZ) (Fusarium oxysporum): 17 mm; MIC (Fusarium oxysporum): 12.5 µg/mL (≈ 41.3 µM); Activity (Escherichia coli [6]): Active; Activity (Staphylococcus aureus [7]): Active
4 | COc1ccc2oc(=O)cc(COc3cccc(NC(C)=O)c3)c2c1 | 19 mm | 6.25 µg/mL (≈ 18.4 µM) | 21 mm | 6.25 µg/mL (≈ 18.4 µM) | 21 mm | 6.25 µg/mL (≈ 18.4 µM) | 19 mm | 6.25 µg/mL (≈ 18.4 µM) | 21 mm | 6.25 µg/mL (≈ 18.4 µM) | 20 mm | 6.25 µg/mL (≈ 18.4 µM) | 21 mm | 6.25 µg/mL (≈ 18.4 µM) | 17 mm | 12.5 µg/mL (≈ 36.8 µM) | 20 mm | 6.25 µg/mL (≈ 18.4 µM) | 25 mm | 6.25 µg/mL (≈ 18.4 µM) | Activity (Escherichia coli [1]): Active; inhibition zone (IZ) (Bacillus subtilis): 19 mm; MIC (Bacillus subtilis): 6.25 µg/mL (≈ 18.4 µM); Activity (Aspergillus niger [5]): Active; inhibition zone (IZ) (Fusarium oxysporum): 16 mm; MIC (Fusarium oxysporum): 12.5 µg/mL (≈ 36.8 µM); Activity (Escherichia coli [6]): Active; Activity (Staphylococcus aureus [7]): Active
5 | COc1ccc2oc(=O)cc(COc3cccc(OCc4cc(=O)oc5ccc(OC)cc45)c3)c2c1 | 19 mm | 6.25 µg/mL (≈ 12.8 µM) | 18 mm | 12.5 µg/mL (≈ 25.7 µM) | 20 mm | 6.25 µg/mL (≈ 12.8 µM) | 17 mm | 6.25 µg/mL (≈ 12.8 µM) | 20 mm | 6.25 µg/mL (≈ 12.8 µM) | 17 mm | 12.5 µg/mL (≈ 25.7 µM) | 18 mm | 12.5 µg/mL (≈ 25.7 µM) | 17 mm | 12.5 µg/mL (≈ 25.7 µM) | 21 mm | 6.25 µg/mL (≈ 12.8 µM) | 24 mm | 6.25 µg/mL (≈ 12.8 µM) | Activity (Escherichia coli [1]): Active; inhibition zone (IZ) (Bacillus subtilis): 18 mm; MIC (Bacillus subtilis): 6.25 µg/mL (≈ 12.8 µM); Activity (Aspergillus niger [5]): Active; inhibition zone (IZ) (Fusarium oxysporum): 15 mm; MIC (Fusarium oxysporum): 12.5 µg/mL (≈ 25.7 µM); Activity (Escherichia coli [6]): Active; Activity (Staphylococcus aureus [7]): Active
6 | O=c1cc(COc2cccc(OCc3cc(=O)oc4ccc(Cl)cc34)c2)c2cc(Cl)ccc2o1 | 20 mm | 6.25 µg/mL (≈ 12.6 µM) | 22 mm | 6.25 µg/mL (≈ 12.6 µM) | 22 mm | 6.25 µg/mL (≈ 12.6 µM) | 19 mm | 6.25 µg/mL (≈ 12.6 µM) | 18 mm | 6.25 µg/mL (≈ 12.6 µM) | 20 mm | 6.25 µg/mL (≈ 12.6 µM) | 24 mm | 6.25 µg/mL (≈ 12.6 µM) | 15 mm | 12.5 µg/mL (≈ 25.2 µM) | 23 mm | 6.25 µg/mL (≈ 12.6 µM) | 22 mm | 6.25 µg/mL (≈ 12.6 µM) | Activity (Aspergillus niger [9]): Active; inhibition zone (IZ) (Bacillus subtilis): 19 mm; MIC (Bacillus subtilis): 6.25 µg/mL (≈ 12.6 µM); Activity (Aspergillus niger [5]): Active; inhibition zone (IZ) (Fusarium oxysporum): 16 mm; MIC (Fusarium oxysporum): 12.5 µg/mL (≈ 25.2 µM); Activity (Escherichia coli [6]): Active; Activity (Staphylococcus aureus [7]): Active
